Laboratory results published in patent US20080305186A1, “Method and Composition for the Treatment of Cardiac Hypertrophy” (BOARD OF REGENTS, THE UNIVERSITY OF TEXAS SYSTEM, priority 2007, published 2008).

Test system: cardiac gene expression
Experiment: Microarray analysis of cardiac gene expression (GeneChip Mouse Genome 430 2.0)
Assay type: in vivo, mice
Experimental: Microarray Sample Preparation and Analysis. Animal hearts were rapidly removed, and the atria and right ventricles were cut and immediately plunged into TRIzol Reagent (Life Technologies). Total RNA was isolated following the manufacturer's instructions, purified by phenol-chloroform extraction and then ethanol precipitation, and 20 μg further processed for microarray analysis. Briefly, cDNA synthesis, in vitro transcription, and labeling and fragmentation to produce the oligonucleotide probes were performed as instructed by the GeneChip manufacturer (Affymetrix). The probes were first hybridized to a test array (Affymetrix) and then to the GeneChip Mouse Genome 430 2.0 Array, using the GeneChip Hybridization Oven 640. The chips were washed in a GeneChip Fluidics Station 450 (Affymetrix), and the results were visualized with a GeneChip G7 scanner (Affymetrix). RMA normalization, pairwise comparisons, Student's t test and Benjamini and Hochberg correction were subsequently performed using GeneSifter (VizX Labs, Seattle, Wash.) and Spotfire DecisionSite 8.3 (Spotfire, Inc., Somerville, Mass.).
Effects on Gene Expression Profile. […] One mouse heart was used for each array, and was performed in triplicate, generating a total of 12 arrays. GeneSifter was used to perform RMA normalization, pairwise comparisons of averaged signal intensity values, and Student's t-test with Benjamini and Hochberg correction, and Spotfire was used to perform pairwise comparisons. […] Additionally, genes that were altered between any two N or cardiac hypertrophy samples were removed, as these alterations most likely represented normal variations between mice.

Compound: C[C@H]1c2cccc(O)c2C(=O)C2=C(O)[C@]3(O)C(=O)C(C(N)=O)=C(O)[C@@H](N(C)C)[C@@H]3[C@@H](O)[C@@H]21 [doxycycline]
- FC Tubulointerstitial nephritis antigen-like (Tinagl) (GenBank BC005738, heart, drug + isoproterenol vs isoproterenol-only mice, CH vs normal FC 2.1): −1.8 fold
- FC Tubulin alpha (Tuba2) (GenBank BC008117, heart, drug + isoproterenol vs isoproterenol-only mice, CH vs normal FC −2.7): 4.1 fold
- FC Intercellular adhesion molecule (Icam1) (GenBank BC008626, vs mice given only isoproterenol): −2.7
- FC Similar to serine protease inhibitor-2 related sequee 1 (Serpina3m) (GenBank BC011158, vs mice given only isoproterenol): −2.4
- FC Phosphatidylinositol binding clathrin assembly protein (Picalm) (GenBank BC011470, vs mice given only isoproterenol): −1.5
- FC Isochorismatase domain containing 1 (Isoc1) (GenBank BC016576, vs mice given only isoproterenol): 2.8
- FC EGF, latrophilin seven transmembrane domain containing 1 (Eltd1) (GenBank BC017134, vs mice given only isoproterenol): −2.0
- FC Ras homolog gene family, member B (RhoB) (GenBank BC018275, vs mice given only isoproterenol): −2.1
- FC D site albumin promoter binding protein (Dbp) (GenBank BC018323, vs mice given only isoproterenol): 10.2
- FC RAD52 homolog (S. cerevisiae) (Rad52) (GenBank BC019123, vs mice given only isoproterenol): −1.8
- FC Leucine-rich repeat-containing 3b (Lrrc3b) (GenBank BC019794, vs mice given only isoproterenol): 1.9
- FC Solute carrier family 45, member 3 (Slc45a3) (GenBank BC024519, vs mice given only isoproterenol): −1.8
- FC Rho GTPase activating protein 24 (Arhgap24) (GenBank BC025502, vs mice given only isoproterenol): −1.8
- FC Motile sperm domain containing 2 (Mospd) (GenBank BC026425, vs mice given only isoproterenol): −1.7
- FC Similar to metallothionein 1 (Mt1) (GenBank BC027262, vs mice given only isoproterenol): −2.7
- FC Guanine deaminase (Gda) (GenBank BE136057, vs mice given only isoproterenol): −1.7
- FC EST (GenBank BE553782, vs mice given only isoproterenol): −1.6
- FC EST (GenBank BE630303, vs mice given only isoproterenol): −1.8
- FC ESTs (GenBank BE630363, vs mice given only isoproterenol): −3.1
- FC ESTs (GenBank BE685667, vs mice given only isoproterenol): −3.2
- FC EST (GenBank BE687858, vs mice given only isoproterenol): −1.5
- FC EST (GenBank BE852759, vs mice given only isoproterenol): 1.7
- FC Retinoblastoma binding protein 4 (Rbbp4) (GenBank BF011461, vs mice given only isoproterenol): 2.1
- FC Methyl-CpG binding domain protein 1 (Mbd1) (GenBank BF121558, vs mice given only isoproterenol): −1.8
- FC SET translocation (Set) (GenBank BF134272, vs mice given only isoproterenol): 2.0
- FC Protein tyrosine phosphatase 4a1 (Ptp4a1) (GenBank BF179910, vs mice given only isoproterenol): −1.9
- FC Potassium channel, subfamily K, member 3 (Kcnk3) (GenBank BF467278, vs mice given only isoproterenol): 3.9
- FC Smoothelin (Smtn) (GenBank BF578669, vs mice given only isoproterenol): 1.5
- FC EST (GenBank BF780807, vs mice given only isoproterenol): −1.9
- FC ESTs (GenBank BG067678, vs mice given only isoproterenol): 2.6
- FC EST (GenBank BG068705, vs mice given only isoproterenol): −1.7
- FC SET domain containing (lysine methyltransferase) 8)Setd8) (GenBank BG069700, vs mice given only isoproterenol): 1.9
- FC Neuronal PAS domain protein 2 (Npas2) (GenBank BG070037, vs mice given only isoproterenol): −2.6
- FC Pleckstrin homology domain containing, family G (with RhoGef domain) member 1 (Plekhg1) (GenBank BG073502, vs mice given only isoproterenol): −2.0
- FC Microtubule-actin crosslinking factor 1 (Macf1) (GenBank BG074706, vs mice given only isoproterenol): 2.7
- FC Insulin-like growth factor 1 (Igf1) (GenBank BG075165, vs mice given only isoproterenol): 2.3
- FC p53 regulated PA26 nuclear protein (Sestrin 1) (Sesn1) (GenBank BG076140, 1st listing, vs mice given only isoproterenol): −2.9
- FC p53 regulated PA26 nuclear protein (Sestrin 1) (Sesn1) (GenBank BG076140, 2nd listing, vs mice given only isoproterenol): −3.5
- FC EST (GenBank BG092512, vs mice given only isoproterenol): −2.9
- FC Transforming growth factor, beta receptor II (Tgfbr2) (GenBank BG793483, heart, drug + isoproterenol vs isoproterenol-only mice, CH vs normal FC 2.4): −2.3 fold
- FC Restin-like 2 (Rsnl2) (GenBank BG916957, vs mice given only isoproterenol): 1.9
- FC mVL30-1 retroelement (GenBank BI076714, vs mice given only isoproterenol): −2.1
- FC Methylcrotonoyl-Coenzyme A carboxylase 2 (beta) (Mccc2) (GenBank BI155184, vs mice given only isoproterenol): 1.7
- FC Transforming, acidic coiled-coil containing protein 2 (Tacc2) (GenBank BI466416, heart, drug + isoproterenol vs isoproterenol-only mice, CH vs normal FC 2.6): −2.5 fold
- FC PHD finger protein 15 (Phf15) (GenBank BI663145, vs mice given only isoproterenol): −2.1
- FC Tissue inhibitor of metalloproteinase 4 (Timp4) (GenBank BI788452, heart, drug + isoproterenol vs isoproterenol-only mice, CH vs normal FC 3.2): −3.1 fold
- FC Zi finger and BTB domain containing 16 (Zbtb16) (GenBank BM115255, heart, drug + isoproterenol vs isoproterenol-only mice, CH vs normal FC 7.5): −1.6 fold
- FC GTL2, imprinted maternally expressed untranslated mRNA (Gtl2) (GenBank BM119226, vs mice given only isoproterenol): 1.7
- FC Ectodermal-neural cortex 1 (E1) (GenBank BM120053, 1st listing, vs mice given only isoproterenol): −2.0
- FC Ectodermal-neural cortex 1 (E1) (GenBank BM120053, 2nd listing, vs mice given only isoproterenol): −1.9
- FC Pellino 2(peli2) (GenBank BM121149, vs mice given only isoproterenol): −1.9
- FC REST corepressor 1 (Rcor1) (GenBank BM194994, vs mice given only isoproterenol): 3.3
- FC EST (GenBank BM219553, vs mice given only isoproterenol): −2.6
- FC Phospholipase D1 (Pld1) (GenBank BM228590, 1st listing, vs mice given only isoproterenol): −2.0
- FC Phospholipase D1 (Pld1) (GenBank BM228590, 2nd listing, vs mice given only isoproterenol): −1.6
- FC SET translocation (Set) (GenBank BM229104, vs mice given only isoproterenol): 2.0
- FC p53 regulated PA26 nuclear protein (Sestrin 1) (Sesn1) (GenBank BM237933, vs mice given only isoproterenol): −2.4
- FC Macrophage activation 2 (Mpa21) (GenBank BM241485, vs mice given only isoproterenol): −3.6
- FC Prohibitin (Phb) (GenBank BM243379, vs mice given only isoproterenol): −2.1
- FC Serine iorporator 3 (Seri3) (GenBank BM244064, vs mice given only isoproterenol): −1.8
